The target of one data set is Glucagon receptor (Homo sapiens, UniProt P47871). Put plainly: Antagonist activity at full length human recombinant GCGR transfected in HEK293 cells assessed as inhibition of glucagon-stimulated cAMP by LANCE assay. The data set is classed as functional, cell-based. For orientation: TR-FRET usually uses a lanthanide donor and a delayed reading to cut background.
A short description of data set [1]: Elimination half life in C57 black mouse at 5 mg/kg, iv. The data set is classed as ADME, organism-based. The conditions noted are these: in vivo, read-out: beta t1/2 (converted).
Data set [2] in a line: Oral bioavailability in C57 black mouse at 20 mg/kg. The settings on record: in vivo. The data set is classed as ADME, organism-based.
Data set [3] in a line: Clearance in C57 black mouse at 5 mg/kg, iv. The data set is classed as ADME, organism-based. The settings on record: in vivo.
Data set [4] can be described thus: Volume of distribution at steady state in C57 black mouse at 5 mg/kg, iv. The data set is classed as ADME, organism-based. The conditions noted are these: in vivo, read-out: Vdss.
A short description of data set [5]: AUClast in C57 black mouse at 20 mg/kg, po. The data set is classed as ADME, organism-based. Details: dose 20 mg/kg, time 0 - last, route oral. The conditions noted are these: in vivo.
A short description of data set [6]: Cmax in C57 black mouse at 20 mg/kg, po. The data set is classed as ADME, organism-based. The conditions noted are these: in vivo. Details: dose 20 mg/kg, route oral.
A short description of data set [7]: Elimination half life in C57 black mouse at 20 mg/kg, po. The settings on record: in vivo, read-out: beta t1/2 (converted). The data set is classed as ADME, organism-based.
A short description of data set [8]: Elimination half life in Sprague Dawley rat at 2 mg/kg, iv. The data set is classed as ADME, organism-based. The conditions noted are these: in vivo, read-out: beta t1/2 (converted).
Data set [9] in a line: Elimination half life in Sprague Dawley rat at 10 mg/kg, po. The data set is classed as ADME, organism-based. The conditions noted are these: in vivo, read-out: beta t1/2 (converted).
The nature of data set [10]: AUClast in Sprague Dawley rat at 10 mg/kg, po. The data set is classed as ADME, organism-based. Details: dose 10 mg/kg, route oral, time 0 - last. The settings on record: in vivo.
The nature of data set [11]: Oral bioavailability in Sprague Dawley rat at 10 mg/kg. The data set is classed as ADME, organism-based. The settings on record: in vivo.
Data set [12] is described as follows: Cmax in Sprague Dawley rat at 10 mg/kg, po. The conditions noted are these: in vivo. Also on record: dose 10 mg/kg, route oral. The data set is classed as ADME, organism-based.
A short description of data set [13]: Volume of distribution at steady state in Sprague Dawley rat at 2 mg/kg, iv. The data set is classed as ADME, organism-based. The settings on record: in vivo, read-out: Vdss.
Data set [14] is described as follows: Clearance in Sprague Dawley rat at 2 mg/kg, iv. The conditions noted are these: in vivo. The data set is classed as ADME, organism-based.

This is an account of results in ChEMBL document CHEMBL4387743, “Design, synthesis and structure activity relationships of indazole and indole derivatives as potent glucagon receptor antagonists” (Bioorg Med Chem Lett, 2019).

Some results are limits rather than exact numbers.

Glucagon receptor, sequence (P47871 whole entry): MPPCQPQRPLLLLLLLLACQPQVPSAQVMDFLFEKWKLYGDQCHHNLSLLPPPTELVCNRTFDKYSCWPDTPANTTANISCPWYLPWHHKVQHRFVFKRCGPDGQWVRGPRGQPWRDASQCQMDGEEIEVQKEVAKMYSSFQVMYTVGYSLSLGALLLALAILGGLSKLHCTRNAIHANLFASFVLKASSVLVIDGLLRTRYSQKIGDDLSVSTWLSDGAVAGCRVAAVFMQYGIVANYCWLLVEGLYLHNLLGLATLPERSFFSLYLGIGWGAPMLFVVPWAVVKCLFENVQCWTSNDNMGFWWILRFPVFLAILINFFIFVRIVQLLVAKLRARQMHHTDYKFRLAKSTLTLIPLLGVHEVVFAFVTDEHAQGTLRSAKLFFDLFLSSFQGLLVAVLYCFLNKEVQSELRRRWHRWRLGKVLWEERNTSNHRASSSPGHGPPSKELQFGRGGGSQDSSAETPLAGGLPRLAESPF

With `CC(C)CC(c1ccc(C(=O)NCCC(=O)O)cc1)n1ncc2cc(-c3ccc(N4CCN(C)CC4)cc3)ccc21` (racemic), on Glucagon receptor, the Ki – broadly, the equilibrium dissociation constant of an inhibitor or competing ligand from its target – was determined as 1.25 µM.

As to `Cc1cc(C(F)(F)F)ccc1-c1ccc2nn(C(CC(C)C)c3ccc(C(=O)NCCC(=O)O)cc3)cc2c1Cl` (racemic), the half-life in [1] was 6.6 h. For the same compound, the bioavailability (commonly dose-corrected exposure relative to a reference, in per cent) in [2] came to 97.7%. In data set [3], the clearance (in general, the volume of plasma or blood freed of the substance per unit of time) worked out at 1.89 mL/min/kg. Further, the Vd in data set [4] is 0.9 L/kg. Also, the exposure AUC(0-t) (as a rule, the area under the concentration-time curve up to a stated or last time point) in data set [5] came out at 290 µM·h. For the same compound, the Cmax (usually the maximum level reached in the sampled fluid or tissue) in data set [6] turned out to be 18.5 µM. Moreover, the inhibition constant (Ki) on Glucagon receptor was determined as 0.019 µM.

As to `Cc1c(-c2ccc(C(F)(F)F)cc2Cl)ccc2nn(C(CC(C)C)c3ccc(C(=O)NCCC(=O)O)cc3)cc12` (racemic), the inhibitory constant (Ki) at Glucagon receptor is 0.029 µM.

Regarding `Cc1cc(C(F)(F)F)ccc1-c1ccc2c(ccn2C(CC(C)C)c2ccc(C(=O)NCCC(=O)O)cc2)c1` (racemic), on Glucagon receptor, the inhibitory constant (Ki) turned out to be 0.085 µM.

For the compound `CC(C)CC(c1ccc(C(=O)NCCC(=O)O)cc1)n1ncc2cc(-c3ccc(C(C)(C)C)cc3)ccc21` (racemic), the inhibition constant Ki on Glucagon receptor was 0.125 µM.

As for `Cc1cc(-c2ccc(C(C)(C)C)cc2)cc2cn(C(CC(C)C)c3ccc(C(=O)NCCC(=O)O)cc3)nc12` (racemic), the inhibitory constant (Ki) at Glucagon receptor came out at 1.34 µM.

As to `CC(C)CC(c1ccc(C(=O)NCCC(=O)O)cc1)n1ncc2cc(-c3ccc(N4CCOCC4)cc3)ccc21` (racemic), the Ki on Glucagon receptor amounted to 3 µM.

With `CC(C)CC(c1ccc(C(=O)NCCC(=O)O)cc1)n1ncc2cc(-c3ccc(C(F)(F)F)cc3)ccc21` (racemic), the Ki on Glucagon receptor was 0.26 µM.

As for `CC(C)CC(c1ccc(C(=O)NCCC(=O)O)cc1)n1ncc2cc(-c3ccc(OC(F)(F)F)cc3)ccc21` (racemic), the inhibitory constant (Ki) on Glucagon receptor fell in the range of 0.285 to 0.65 µM.

For `Cc1cc(C(F)(F)F)ccc1-c1cc2cnn(C(CC(C)C)c3ccc(C(=O)NCCC(=O)O)nc3)c2cc1C` (racemic), the half-life was 5 h in data set [1] and 4.8 h in data set [7]. For the same compound, the bioavailability in data set [2] is 94.7%. For the same compound, the clearance in [3] stood at 4.83 mL/min/kg. Moreover, in data set [4], the Vd is 1.85 L/kg. The AUC(0-t) in data set [5] amounted to 111 µM·h. For the same compound, the Cmax in data set [6] worked out at 11.1 µM.

As to `CC(C)CC(c1ccc(C(=O)NCCC(=O)O)cc1)n1ccc2cc(-c3ccc(C(C)(C)C)cc3)ccc21` (racemic), on Glucagon receptor, the Ki was determined as 0.11 µM.

With `CC(C)CC(c1ccc(C(=O)NCCC(=O)O)cc1)n1ncc2cc(-c3cc(Cl)cc(Cl)c3)ccc21` (racemic), the Ki on Glucagon receptor was 1.65 µM.

In the case of `Cc1cc(-c2ccc(C(C)(C)C)cc2)cc2ccn(C(CC(C)C)c3ccc(C(=O)NCCC(=O)O)nc3)c12` (racemic), the inhibitory constant (Ki) at Glucagon receptor was over 2.6 µM.

For the compound `CC(C)CC(c1ccc(C(=O)NCCC(=O)O)cc1)n1ccc2cc(-c3ccc(C(F)(F)F)cc3)ccc21` (racemic), the half-life in [8] was 4.6 h; in data set [1], 3.7 h; in data set [9], 5.2 h; in [7], 3.9 h. For the same compound, the results for the bioavailability in [2] and in [11] were 68.7% and 51.7%, respectively. Moreover, the clearance in data set [3] was 3.77 mL/min/kg; in data set [14] it was 12.2 mL/min/kg. For the same compound, the Vd in [4] is 1.05 L/kg; in data set [13], 3.65 L/kg. For the same compound, the AUC(0-t) in data set [10] stood at 14.3 µM·h; in data set [5], 116 µM·h. Moreover, the maximum concentration (Cmax) amounted to 8.1 µM in [6] and 1.4 µM in data set [12]. Besides, at Glucagon receptor, the inhibition constant Ki was found to be 0.115 µM.

For the compound `Cc1cc(C(F)(F)F)ccc1-c1cc(F)c2c(ccn2C(CC(C)C)c2ccc(C(=O)NCCC(=O)O)cc2)c1C` (racemic), on Glucagon receptor, the Ki was determined as 0.7 µM.
